This series can be described thus: acid dissociation constant (pKa) of the conjugate acid of the base component. To be noted: water.

Molecules are shown by their SMILES.

Consider three compounds from US12469647B2, “Electrolytic capacitor” (Panasonic Intellectual Property Management Co., Ltd., priority 2020, dated 2025).

As usually defined, the pKa is the negative logarithm of the acid dissociation constant. High values mean a group that holds its proton tightly, low ones a group that gives up its proton readily.

Description: The pKa of the conjugate acid of the base is the pKa of the cation of the base.

The compound `CCCCN1CCOCC1` [N-butylmorpholine] showed a pKa of 7.5.

`CCCCNCCCC` [dibutylamine] returned a pKa of 11.3.

Take `CC(C)CN(CC(C)C)CC(C)C` [triisobutylamine]: the pKa was 9.5.
